The source of these data is PMC11432330, “Novel Drug-like HsrA Inhibitors Exhibit Potent Narrow-Spectrum Antimicrobial Activities against Helicobacter pylori” (International Journal of Molecular Sciences, 2024).

The MBC is the lowest tested concentration that kills the bacteria rather than only halting them. For orientation: MIC means the lowest concentration found to suppress growth.

In series [1] the test system is H. pylori ATCC 700684 (CLR-R). Nature of the series: MIC/MBC, broth microdilution. The series is classed as cell-based, Helicobacter pylori. The protocol: (§1) The antimicrobial activity of the HsrA inhibitors was evaluated by the determination of the minimal inhibitory concentration (MIC) against four different strains of H. pylori: ATCC 700392 (aka 26695), ATCC 43504 (MTZ-resistant reference strain), ATCC 700684 (CLR-resistant reference strain), and Donostia 2 (LVX-resistant clinical isolate). The MICs were determined by the broth microdilution method, as previously described. Briefly, H. pylori strains were grown in blood agar at 37 °C for 72 h under microaerobic conditions. Fresh inoculums adjusted at OD600 = 0.01 [~10^6 colony forming units (CFU) per mL] in BHI broth supplemented with 4% fetal bovine serum (BHI + FBS) were prepared and immediately exposed to final concentrations between 64 and 0.031 mg/L of each compound of interest. The compound solvent (DMSO) as well as conventional antibiotics (MTZ, CLR, LVX) were included as controls. […] Each experiment was performed twice in triplicate. The MIC and MBC values of the selected compounds against C. jejuni ATCC 33560 were determined by using the same method and culture conditions described for the H. pylori strains.
A general note: In broth dilution the organism is exposed to a series of concentrations in liquid medium.

Series [2] concerns H. pylori ATCC 43504 (MTZ-R). Nature of the series: MIC/MBC, broth microdilution. The series is classed as cell-based, Helicobacter pylori. Particulars: H. pylori ATCC 43504 (MTZ-R). As for the experimental part: as §1
The subject of series [3] is H. pylori ATCC 700392 (26695). Nature of the series: MIC/MBC, broth microdilution. It counts as cell-based, Helicobacter pylori. To be noted: H. pylori ATCC 700392 (26695). As for the experimental part:
as §1

In series [4] the test system is H. pylori Donostia 2 (LVX-R). Nature of the series: MIC/MBC, broth microdilution. It counts as cell-based, Helicobacter pylori. To be noted: H. pylori Donostia 2 (LVX-R). The protocol: as §1
Series [5] deals with T1, HsrA (Helicobacter pylori 26695), ORF:12bb3c8f.
T1 sequence: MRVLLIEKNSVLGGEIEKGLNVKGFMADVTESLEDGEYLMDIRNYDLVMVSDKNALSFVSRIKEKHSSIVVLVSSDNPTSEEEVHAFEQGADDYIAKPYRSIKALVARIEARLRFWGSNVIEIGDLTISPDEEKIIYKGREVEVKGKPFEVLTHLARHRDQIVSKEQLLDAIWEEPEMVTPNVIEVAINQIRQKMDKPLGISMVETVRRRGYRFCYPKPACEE
Nature of the series: EMSA. Particulars: EMSA: 10 mM bis-Tris pH 7.5, 40 mM KCl, 100 mg/L BSA, 1 mM DTT, 5% glycerol; room temperature 20 min; 6% native gel, SYBR Safe. Background: A gel shift assay detects complexes by their altered migration in electrophoresis.

A further series concerns S. agalactiae ATCC 12386. Kind of series: MIC/MBC according to EUCAST guidelines. The series is classed as cell-based. Particulars: Streptococcus agalactiae, ATCC12386. The protocol: (§2) The antimicrobial activities of the selected compounds against several Gram-negative and Gran-positive representative species of normal human microbiota were determined according to the EUCAST guidelines. Briefly, standardized inoculums (0.5 McFarland) were freshly prepared from overnight Mueller–Hinton agar plates of reference strains E. coli ATCC 25922, K. pneumonia ATCC 700603, E. faecalis ATCC 29212, S. aureus ATCC 29213, S. epidermidis ATCC 12228, and S. agalactiae ATCC 12386. Next, bacterial suspensions adjusted to 5 × 10^5 CFU/mL in Mueller–Hinton broth were exposed to a range of concentrations from 64 to 0.031 mg/L of the selected compounds. DMSO and conventional antibiotics LVX and AMP were included as controls. […] Experiments were performed twice in triplicate.

For a further series, the system named is E. faecalis ATCC 29212. Nature of the series: MIC/MBC according to EUCAST guidelines. Particulars: Enterococcus faecalis, ATCC29212. The series is classed as cell-based. The protocol: as §2
The subject of a further series is S. aureus ATCC 29213. Kind of series: MIC/MBC according to EUCAST guidelines. It counts as cell-based. To be noted: Staphylococcus aureus, ATCC29213. The protocol: as §2
The test system of series [6] is S. epidermidis ATCC 12228. Nature of the series: MIC/MBC according to EUCAST guidelines. To be noted: Staphylococcus epidermidis, ATCC12228. The series is classed as cell-based. As for the experimental part:
as §2

A further series concerns E. coli ATCC 25922. Nature of the series: MIC/MBC according to EUCAST guidelines. Particulars: Escherichia coli, ATCC25922. It counts as cell-based. As for the experimental part:
as §2

The subject of another series is H. pylori. On the set-up: method as in PMID 31383920, PMID 34354964. Particulars: ref [40],[70]; cited from earlier work.
The subject of series [7] is K. pneumoniae ATCC 700603. Nature of the series: MIC/MBC according to EUCAST guidelines. The series is classed as cell-based, Klebsiella pneumonia. Particulars: Klebsiella pneumoniae, ATCC700603. The protocol: as §2
For another series, the system named is C. jejuni ATCC 33560. Kind of series: MIC/MBC, broth microdilution. The series is classed as cell-based. Particulars: Campylobacter jejuni, ATCC33560, C. jejuni ATCC 33560. As for the experimental part: as §1
Where [8] appears, read: Helicobacter pylori, ATCC700684, read-out: MBC.
[9] abbreviates: Helicobacter pylori, ATCC700684, read-out: MIC.
[10] abbreviates: Helicobacter pylori, ATCC43504, read-out: MBC.
The mark [11] stands for this setting: Helicobacter pylori, ATCC43504, read-out: MIC.
Setting [12] is: Helicobacter pylori, ATCC700392, read-out: MBC.
The mark [13] stands for this setting: Helicobacter pylori, ATCC700392, read-out: MIC.
Where [14] appears, read: Helicobacter pylori, read-out: MBC.
[15] abbreviates: Helicobacter pylori, read-out: MIC.

Values after ≈ are worked out from the molar mass of the structure shown. Like-named read-outs stand apart in the source and are kept apart here.

Turning to `NC(Cn1ccc(C(F)(F)F)n1)=NOC(=O)Nc1ccc(SC(F)(F)F)cc1` [Ligand IX], the MBC in series [1] amounted to 8 µg/mL (≈ 18.7 µM); in series [2] it was 8 µg/mL (≈ 18.7 µM); in [3], 16 µg/mL (≈ 37.4 µM); in series [4], 16 µg/mL (≈ 37.4 µM). Further, the MIC in [1] stood at 4 µg/mL (≈ 9.36 µM); in series [2], 4 µg/mL (≈ 9.36 µM); in series [3] it was 8 µg/mL (≈ 18.7 µM); in series [4], 8 µg/mL (≈ 18.7 µM).
On to `Cc1ncc([N+](=O)[O-])n1CCO` [MTZ, metronidazole, reference compound], for which the minimum bactericidal concentration (MBC) in [1] (setting [8]) amounted to 2 µg/mL (≈ 11.7 µM); in series [2] (setting [10]), 128 µg/mL (≈ 748 µM); in series [3] (setting [12]) it was 2 µg/mL (≈ 11.7 µM); in series [4] (setting [14]), 8 µg/mL (≈ 46.7 µM). In addition, the MIC was 1 µg/mL (≈ 5.84 µM) in [1] (setting [9]), 64 µg/mL (≈ 374 µM) in series [2] (setting [11]), 1 µg/mL (≈ 5.84 µM) in [3] (setting [13]) and 8 µg/mL (≈ 46.7 µM) in series [4] (setting [15]).
As to `CCOC(=O)c1ccc(-n2nnc(C=CC=CN3CCOCC3)n2)cc1` [Ligand XVII], the MBC is 8 µg/mL (≈ 22.5 µM) in [1], 8 µg/mL (≈ 22.5 µM) in series [2], 16 µg/mL (≈ 45 µM) in series [3] and 8 µg/mL (≈ 22.5 µM) in [4]. In addition, the MIC was 8 µg/mL (≈ 22.5 µM) in series [1], 4 µg/mL (≈ 11.3 µM) in series [2], 16 µg/mL (≈ 45 µM) in [3] and 8 µg/mL (≈ 22.5 µM) in [4].
As for `CC(=O)Nc1cc(C(=O)c2cccs2)nn(-c2ccc(Cl)cc2)c1=O` [Ligand XXXI], the MBC was greater than 64 µg/mL in series [1], 64 µg/mL (≈ 171 µM) in series [2], greater than 64 µg/mL in series [3] and greater than 64 µg/mL in series [4]. Moreover, the MIC in [1] was greater than 64 µg/mL; in [2], 64 µg/mL (≈ 171 µM); in [3] it was greater than 64 µg/mL; in series [4], greater than 64 µg/mL.
Take `CC[C@H]1OC(=O)[C@H](C)[C@@H](O[C@H]2C[C@@](C)(OC)[C@@H](O)[C@H](C)O2)[C@H](C)[C@@H](O[C@@H]2O[C@H](C)C[C@H](N(C)C)[C@H]2O)[C@](C)(OC)C[C@@H](C)C(=O)[C@H](C)[C@@H](O)[C@]1(C)O` [CLR, clarithromycin, reference compound]: the MBC is 32 µg/mL (≈ 42.8 µM) in series [1] (setting [8]), less than 0.03 µg/mL in series [2] (setting [10]), less than 0.03 µg/mL in [3] (setting [12]) and less than 0.03 µg/mL in series [4] (setting [14]). Besides, the MIC in [1] (setting [9]) is 16 µg/mL (≈ 21.4 µM); in series [2] (setting [11]) it was less than 0.03 µg/mL; in [3] (setting [13]) it was less than 0.03 µg/mL; in series [4] (setting [15]), less than 0.03 µg/mL.
On to `Cc1oc2ccccc2c1CC(=O)NNC(=S)Nc1cccc(C(F)(F)F)c1` [Ligand X], for which the minimal bactericidal concentration (MBC) in [1] turned out to be 8 µg/mL (≈ 19.6 µM); in [2] it was 8 µg/mL (≈ 19.6 µM); in series [3] it was 16 µg/mL (≈ 39.3 µM); in [4] it was 16 µg/mL (≈ 39.3 µM). Also, the MIC in series [1], in series [2], in series [3] and in series [4] was 8 µg/mL (≈ 19.6 µM) each time.
For the molecule `Cc1sc2c(c1C)C(O)=C(C(=O)Nc1ccc(OC(F)(F)F)cc1)S(=O)(=O)N2C` [Ligand XXVIII], the MBC in [1] stood at 32 µg/mL (≈ 71.4 µM); in series [2], 16 µg/mL (≈ 35.7 µM); in series [3] it was 64 µg/mL (≈ 143 µM); in series [4], 32 µg/mL (≈ 71.4 µM). In addition, the MIC in series [1] came out at 32 µg/mL (≈ 71.4 µM); in series [2], 16 µg/mL (≈ 35.7 µM); in series [3] it was 32 µg/mL (≈ 71.4 µM); in series [4], 32 µg/mL (≈ 71.4 µM).
Take “CCCCACACTTGCCCCATACAGACTAAAATCAAATCACACCTTAAATAATAACAAAGTTTAAAATAAATATTAGTGGTTTTTATTAAGAACGCTTGTCTTTTTAGAATAAATGGCCATAAAATAGCCATAATTCTTGTAGGTATGCCCCCATTTTCCTATAAAAATTCCTAAAAAGATATTGTTATAAGACACATTAATAGTTTTTCTTGTATAATTCTAGGCTGAATTCAATTTATTTTATACGATATTAAGGAGACATATTACCATGTTTCAAATTAGATGGCATGC (double strand) [PporG (porGDAB promoter)]”: the binding result in [5] is “binds”.
Turning to `CC1(C)S[C@@H]2[C@H](NC(=O)[C@H](N)c3ccccc3)C(=O)N2[C@H]1C(=O)O` [AMP, ampicillin, reference compound], the MBC in the series on S. agalactiae ATCC 12386 came to 0.5 µg/mL (≈ 1.43 µM); in the series with E. faecalis ATCC 29212, 4 µg/mL (≈ 11.4 µM); with S. aureus ATCC 29213, 4 µg/mL (≈ 11.4 µM); in [6] it was 4 µg/mL (≈ 11.4 µM); in the series with E. coli ATCC 25922 it was 4 µg/mL (≈ 11.4 µM). The MIC against S. agalactiae ATCC 12386 was 0.25 µg/mL (≈ 0.715 µM); with E. faecalis ATCC 29212, 4 µg/mL (≈ 11.4 µM); against S. aureus ATCC 29213 it was 2 µg/mL (≈ 5.72 µM); in series [6], 4 µg/mL (≈ 11.4 µM); in the series with E. coli ATCC 25922, 4 µg/mL (≈ 11.4 µM).
For `COc1ccc([C@@H]2CC(=O)c3c(O)cc(O)cc3O2)cc1O` [hesperetin], the “Combinatory action with clarithromycin or metronidazole against H. pylori” value with H. pylori was “strong synergistic bactericidal action”.
For the molecule `C[C@H]1COc2c(N3CCN(C)CC3)c(F)cc3c(=O)c(C(=O)O)cn1c23` [LVX, levofloxacin, reference compound], the MBC was 0.5 µg/mL (≈ 1.38 µM) in series [7]; less than 0.12 µg/mL against C. jejuni ATCC 33560; 0.12 µg/mL (≈ 0.332 µM) in series [1] (setting [8]); 0.5 µg/mL (≈ 1.38 µM) in [2] (setting [10]); 0.12 µg/mL (≈ 0.332 µM) in series [3] (setting [12]); 32 µg/mL (≈ 88.6 µM) in [4] (setting [14]). For the same molecule, the MIC in [7] is 0.5 µg/mL (≈ 1.38 µM); against C. jejuni ATCC 33560, less than 0.12 µg/mL; in [1] (setting [9]), 0.12 µg/mL (≈ 0.332 µM); in series [2] (setting [11]) it was 0.5 µg/mL (≈ 1.38 µM); in [3] (setting [13]), 0.12 µg/mL (≈ 0.332 µM); in series [4] (setting [15]) it was 16 µg/mL (≈ 44.3 µM).
Turning to `O=c1cc(-c2ccccc2)oc2cc(O)cc(O)c12` [chrysin], in the series with H. pylori, the “Combinatory action with clarithromycin or metronidazole against H. pylori” value is on record as “strong synergistic bactericidal action”.
